Reference: patent US20080051419A1, “AMINE DERIVATIVES USEFUL AS ANTICANCER AGENTS” (PFIZER INC., priority 2006, published 2008)
Like-named read-outs stand apart in the source and are kept apart here.

Molecular target: T1, Akt1 (Homo sapiens, UniProt P31749, S473D)
T1 construct: The version of Akt used in these studies lacks the pleckstrin homology (PH) domain
Assay: Akt1 kinase assay, fluorescence polarization (IMAP)
Assay type: biochemical
Procedure, shortened: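 His-tagged Akt1 lacking the PH domain, Thr308-prephosphorylated, 1.5 ng per reaction, with 4 μM ATP and 40 nM TAMRA-Crosstide (solution concentrations) in Tris pH 7.5/MgCl2/DTT buffer. Incubated 30 min at ambient temperature; IMAP fluorescence polarization read (544/615 nm). IC50 after subtraction of no-enzyme background.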

[1] = Table 1, concentration bins, read-out: Concentration Range at which exemplary compounds of formula I inhibit Akt kinase activity
[2] = Table 3, read-out: Avg Akt kinase, μM (50% inhibition)
[3] = average Akt kinase activity (IC50), read-out: Avg Akt kinase, μM (50% inhibition)
[4] = Table 4, read-out: Avg Akt kinase, μM (50% inhibition)

T1 sequence (P31749 118-480 S473D limits assumed, species assumed): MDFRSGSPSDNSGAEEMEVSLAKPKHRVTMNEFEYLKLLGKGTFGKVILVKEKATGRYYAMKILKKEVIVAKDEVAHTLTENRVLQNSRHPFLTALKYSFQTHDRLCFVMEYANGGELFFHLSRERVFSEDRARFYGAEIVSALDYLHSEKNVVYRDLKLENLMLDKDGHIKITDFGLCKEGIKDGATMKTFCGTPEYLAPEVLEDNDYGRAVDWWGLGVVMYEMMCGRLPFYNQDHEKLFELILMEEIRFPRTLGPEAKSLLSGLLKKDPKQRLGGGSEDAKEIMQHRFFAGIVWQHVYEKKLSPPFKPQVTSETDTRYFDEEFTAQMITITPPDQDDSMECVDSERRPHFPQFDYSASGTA

Compound	IC50 [1]	IC50 [2]	IC50 [3]	IC50 [4]	IC50 (read-out: Avg Akt kinase, μM (50% inhibition))
CCc1c[nH]c2ncnc(N3CC[C@](N)(CNc4cc(C)on4)C3)c12 [Example 1, N—(((S)-3-amino-1-(5-ethyl-7H-pyrrolo[2,3-d]pyrimidin-4-yl)pyrrolidin-3-yl)methyl)-5-methylisoxazol-3-amine]	0.0101 to 0.1 µM	0.0154 µM			
CCc1c[nH]c2ncnc(N3CC[C@@](N)(CNC(=O)c4cc(C)on4)C3)c12 [Example 91]	0.00251 to 0.01 µM		0.00392 µM		
Cc1ccn2ncnc(N3CCC(N)(CNc4cccc(Cl)c4Cl)C3)c12 (centres unmarked) [Example 10, 3-{[(2,3-dichlorophenyl)amino]methyl}-1-(5-methylpyrrolo[2,1-f][1,2,4]triazin-4-yl)pyrrolidin-3-amine]	0.00251 to 0.01 µM	0.003 µM			
N#Cc1c[nH]c2ncnc(N3CCC(N)(COc4cccc(C(F)(F)F)c4)C3)c12 (centres unmarked) [Example 63, 4-(3-amino-3-{[3-(trifluoromethyl)phenoxy]methyl}pyrrolidin-1-yl)-7H-pyrrolo[2,3-d]pyrimidine-5-carbonitrile]	0.0101 to 0.1 µM			0.0641 µM	
N#Cc1c[nH]c2ncnc(N3CC[C@](N)(CNC(=O)c4ccc(Cl)cc4)C3)c12 [Example 86]	0.0101 to 0.1 µM		0.0175 µM		
CCc1c[nH]c2ncnc(N3CC[C@](N)(CNC(=O)c4ccccc4F)C3)c12 [Example 98, N-{[(3S)-3-amino-1-(5-ethyl-7H-pyrrolo[2,3-d]pyrimidin-4-yl)pyrrolidin-3-yl]methyl}-2-fluorobenzamide]	0.00025 to 0.0025 µM		0.000683 µM		
Cc1c[nH]c2ncnc(N3CCC(N)(CNc4ccccc4N4CCCCC4)C3)c12 (centres unmarked) [Example 24, 1-(5-methyl-7H-pyrrolo[2,3-d]pyrimidin-4-yl)-3-{[(2-piperidin-1-ylphenyl)amino]methyl}pyrrolidin-3-amine]	0.0101 to 0.1 µM	0.0108 µM			
Cc1c[nH]c2ncnc(N3CC[C@](N)(CNC(=O)c4ccc(F)cc4F)C3)c12 [Example 97, N-{[(3S)-3-amino-1-(5-methyl-7H-pyrrolo[2,3-d]pyrimidin-4-yl)pyrrolidin-3-yl]methyl}-2,4-difluorobenzamide]	0.00025 to 0.0025 µM		0.000979 µM		
Cc1c[nH]c2ncnc(N3CCC(N)(CNc4ccc(Cl)nn4)C3)c12 (centres unmarked) [Example 52, N-{[3-amino-1-(5-methyl-7H-pyrrolo[2,3-d]pyrimidin-4-yl)pyrrolidin-3-yl]methyl}-6-chloropyridazin-3-amine]	0.0101 to 0.1 µM	0.082 µM			
Cc1c[nH]c2ncnc(N3CCC(N)(CNc4cc(C(F)(F)F)ccc4Oc4ccc(Cl)cc4)C3)c12 (centres unmarked) [Example 33, 3-({[2-(4-chlorophenoxy)-5-(trifluoromethyl)phenyl]amino}-methyl)-1-(5-methyl-7H-pyrrolo[2,3-d]pyrimidin-4-yl)pyrrolidin-3-amine]	0.00251 to 0.01 µM	0.00859 µM			
Cc1c[nH]c2ncnc(N3CCC(N)(CN4CCCc5ccccc54)C3)c12 (centres unmarked) [Example 49, 3-(3,4-dihydroquinolin-1(2H)-ylmethyl)-1-(5-methyl-7H-pyrrolo[2,3-d]pyrimidin-4-yl)pyrrolidin-3-amine]	0.101 to 10 µM	0.131 µM			
Cc1c[nH]c2ncnc(N3CC[C@](N)(COc4cccc(C(F)(F)F)c4)C3)c12 [Example 61, (3R)-1-(5-methyl-7H-pyrrolo[2,3-d]pyrimidin-4-yl)-3-{[3-(trifluoromethyl)-phenoxy]methyl}pyrrolidin-3-amine]	0.0101 to 0.1 µM			0.0335 µM	
Cc1c[nH]c2ncnc(N3CC[C@](N)(CNC(=O)c4ccc(F)c(F)c4)C3)c12 [Example 114]	0.0101 to 0.1 µM		0.0176 µM		
Cc1c[nH]c2ncnc(N3CCC(N)(CNc4ccc(C#N)c(Cl)c4)C3)c12 (centres unmarked) [Example 22, 4-({[3-amino-1-(5-methyl-7H-pyrrolo[2,3-d]pyrimidin-4-yl)pyrrolidin-3-yl]methyl}amino)-2-chlorobenzonitrile]	0.0101 to 0.1 µM	0.0161 µM			
N#Cc1c[nH]c2nccc(N3CCC(N)(CNc4ccccc4Oc4ccccc4)C3)c12 (centres unmarked) [Example 11, 4-(3-amino-3-{[(2-phenoxyphenyl)amino]methyl}pyrrolidin-1-yl)-1H-pyrrolo[2,3-b]pyridine-3-carbonitrile]	0.00251 to 0.01 µM				
Cc1c[nH]c2ncnc(N3CCC(N)(CNCC4CC4)C3)c12 (centres unmarked) [Example 54, 3-{[(cyclopropylmethyl)amino]methyl}-1-(5-methyl-7H-pyrrolo[2,3-d]pyrimidin-4-yl)pyrrolidin-3-amine]	0.101 to 10 µM	0.739 µM			
CCc1c[nH]c2ncnc(N3CCC(N)(COc4cccc(C)c4)C3)c12 (centres unmarked) [Example 65, 1-(5-ethyl-7H-pyrrolo[2,3-d]pyrimidin-4-yl)-3-[(3-methylphenoxy)methyl]pyrrolidin-3-amine]	0.0101 to 0.1 µM			0.0948 µM	
N#Cc1c[nH]c2ncnc(N3CC[C@](N)(CNC(=O)c4ccccc4)C3)c12 [Example 111, N-{[(3S)-3-amino-1-(5-cyano-7H-pyrrolo[2,3-d]pyrimidin-4-yl)pyrrolidin-3-yl]methyl}benzamide]	0.0101 to 0.1 µM		0.0265 µM		
Cc1c[nH]c2ncnc(N3CCC(N)(CNc4ccccc4S(=O)(=O)N4CC[C@@H](F)C4)C3)c12 (stereo partly drawn) [Example 15, 3-{[(2-{[(3R)-3-fluoropyrrolidin-1-yl]sulfonyl}phenyl)amino]methyl}-1-(5-methyl-7H-pyrrolo[2,3-d]pyrimidin-4-yl)pyrrolidin-3-amine]	0.0101 to 0.1 µM	0.0154 µM			
Cc1c[nH]c2ncnc(N3CCC(N)(CN(CCN(C)C)C(=O)Nc4ccccc4)C3)c12 (centres unmarked) [Example 195, 1-{[3-amino-1-(5-methyl-7H-pyrrolo[2,3-d]pyrimidin-4-yl)pyrrolidin-3-yl]methyl}-1-[2-(dimethylamino)ethyl]-3-phenylurea]	0.101 to 10 µM				0.141 µM
Cc1c[nH]c2ncnc(N3CC[C@](N)(CNC(=O)c4ccc(Cl)cc4F)C3)c12 [Example 102, N-{[(3S)-3-amino-1-(5-methyl-7H-pyrrolo[2,3-d]pyrimidin-4-yl)pyrrolidin-3-yl]methyl}-4-chloro-2-fluorobenzamide]	0.0101 to 0.1 µM		0.014 µM		
Cc1c[nH]c2ncnc(N3CC[C@](N)(CNc4cccc(C(F)(F)F)c4)C3)c12 [Example 13, (3S)-1-(5-methyl-7H-pyrrolo[2,3-d]pyrimidin-4-yl)-3-({[3-(trifluoromethyl)phenyl]amino}-methyl)pyrrolidin-3-amine]	0.00025 to 0.0025 µM	0.00226 µM			
(E)-3-(3-trifluoromethyl)styryl)-1-(5-methyl-7H-pyrrolo[2,3-d]pyrimidin-4-yl)-3-amine [Example 68]			1.14 µM		
N[C@]1(CNC(=O)c2ccccc2F)CCN(c2ncnc3[nH]cc(Cl)c23)C1 [Example 80, N-{[(3S)-3-amino-1-(5-chloro-7H-pyrrolo[2,3-d]pyrimidin-4-yl)pyrrolidin-3-yl]methyl}-2-fluorobenzamide]	0.00251 to 0.01 µM		0.00424 µM		
N[C@]1(CNC(=O)c2ccc(F)cc2Cl)CCN(c2ncnc3[nH]cc(Cl)c23)C1 [Example 107, N-{[(3S)-3-amino-1-(5-chloro-7H-pyrrolo[2,3-d]pyrimidin-4-yl)pyrrolidin-3-yl]methyl}-2-chloro-4-fluorobenzamide]	0.00025 to 0.0025 µM		0.0011 µM		
Cc1c[nH]c2ncnc(N3CCC(N)(CN(C)c4ccccc4)C3)c12 (centres unmarked) [Example 48, 3-{[methyl(phenyl)amino]methyl}-1-(5-methyl-7H-pyrrolo[2,3-d]pyrimidin-4-yl)pyrrolidin-3-amine]	0.101 to 10 µM	0.12 µM			
